In patent EP0269841A1, “1-Hydroxyalkyl xanthines, processes for their preparation and medicaments containing them” (SOCIETE DES PRODUITS NESTLE S.A., priority 1986, dated 1988):

Tested on: oreillette gauche du cobaye isolée et stimulée électriquement
Test: In vitro inotropic (cardiotonic) activity: contraction force of isolated, electrically stimulated guinea pig left atrium
Type: cell-based
Conditions: read-out: Cardiotonique (concentration minimale efficace en ug/ml produisant une réponse significative)
Text: Les composés (I) selon l'invention ont été trouvés peu toxiques et n'ont pas ou peu d'effet sur le système nerveux central. Par contre, ils se sont montrés actifs dans les test in vitro d'activité inotropique (cardiotonique). Le Tableau (IV) ci-dessous donne les résultats de ces essais.
Theophylline 15 Amrinone ^2) 100 Milrinone ^2) 0,5 IBMX^3) 0,5 • 1) Mesure de la force de contraction de l'oreillette gauche du cobaye isolée et stimulée électriquement, selon Erjavek, F. and Adamic, S., Arch. Int. Pharmacodyn. 155: 251, 1965. Une réponse est considérée comme significative lorsque la force de contraction de base est augmentée de plus de 40 %. • 2) Médicament cardiotonique selon l'état de la technique • 3) 1-méthyl-3-isobutylxanthine

In the case of `Cc1[nH]c(=O)c(C#N)cc1-c1ccncc1` [Milrinone, reference compound], the minimal effective concentration was 0.5 µg/mL.

Same assay, conditions: significant response = basal contraction force increased by more than 40 %; isolated left atrium of guinea pig, electrically stimulated

For `CCCCn1c(=O)n(CC(C)O)c(=O)c2[nH]cnc21` (stereo not shown) [compound 6], the “Cardiotonique (concentration minimale efficace en ug/ml produisant une réponse significative)” value was 4,2 ug/ml.
For `CCCn1c(=O)n(CCCCCO)c(=O)c2[nH]c(C)nc21` [compound 27], the “Cardiotonique (concentration minimale efficace en ug/ml produisant une réponse significative)” value was 0,3 ug/ml.

Same assay, conditions: significant response = basal contraction force increased by more than 40 %; isolated left atrium of guinea pig, electrically stimulated; listed as 1

In the case of `CCCn1c(=O)n(CCCCCO)c(=O)c2[nH]c(C)nc21` [Xanthine No. 27, 1-(5-Hydroxypentyl)-3-propyl-8-methylxanthine], the “Cardiotonique (concentration minimale efficace en ug/ml produisant une réponse significative)” value was 1 µg/mL.

Same assay, conditions: significant response = basal contraction force increased by more than 40 %; isolated left atrium of guinea pig, electrically stimulated; listed as 2

In the case of `CCCCn1c(=O)n(CCCCO)c(=O)c2[nH]cnc21` [Xanthine No. 21, 1-(4-Hydroxybutyl)-3-butylxanthine], the “Cardiotonique (concentration minimale efficace en ug/ml produisant une réponse significative)” value was 2,5 ug/ml.

Same assay, conditions: significant response = basal contraction force increased by more than 40 %; isolated left atrium of guinea pig, electrically stimulated; listed as 3

For `CC(C)Cn1c(=O)n(CCC(C)O)c(=O)c2[nH]cnc21` (stereo not shown) [Xanthine No. 17, 1-(3-Hydroxybutyl)-3-isobutylxanthine], the “Cardiotonique (concentration minimale efficace en ug/ml produisant une réponse significative)” value was 2 µg/mL.

Same assay, conditions: significant response = basal contraction force increased by more than 40 %; isolated left atrium of guinea pig, electrically stimulated; read-out: Cardiotonique (concentration minimale efficace en ug/ml produisant une réponse significative)

In order of falling minimal effective concentration:
1. Nc1cc(-c2ccncc2)c[nH]c1=O [Amrinone, reference compound]  100 µg/mL
2. CC(O)CCn1c(=O)c2[nH]cnc2n(C)c1=O (stereo not shown) [compound 13]  50 µg/mL
3. CC(O)CCCn1c(=O)c2[nH]cnc2n(C)c1=O (stereo not shown) [compound 23]  33.3 µg/mL
4. Cc1nc2c([nH]1)c(=O)n(CCCCO)c(=O)n2CC(C)C [compound 22]  25 µg/mL
5. Cn1c(=O)c2[nH]cnc2n(C)c1=O [Theophylline, reference compound]  15 µg/mL
6. Cn1c(=O)n(CCCCCO)c(=O)c2[nH]cnc21 [compound 25]  6.7 µg/mL
7. CCCn1c(=O)n(CCCO)c(=O)c2[nH]c(C)nc21 [compound 8]  4.2 µg/mL
8. CCCCn1c(=O)n(CC(C)O)c(=O)c2[nH]cnc21 (stereo not shown) [Xanthine No. 6, 1-(2-Hydroxypropyl)-3-butylxanthine]  3.3 µg/mL
9. CCn1c(=O)n(CCCCO)c(=O)c2[nH]cnc21 [compound 18]  3.3 µg/mL
10. CCCn1c(=O)n(CCCO)c(=O)c2[nH]c(CC)nc21 [compound 9]  2 µg/mL
11. CCCCn1c(=O)n(CCCCO)c(=O)c2[nH]cnc21 [compound 21]  2 µg/mL
12. CC(C)Cn1c(=O)n(CCC(C)O)c(=O)c2[nH]cnc21 (stereo not shown) [compound 17]  1.3 µg/mL
13. CCCn1c(=O)n(CCCO)c(=O)c2[nH]cnc21 [compound 7]  1.3 µg/mL
14. CCn1c(=O)n(CCC(C)O)c(=O)c2[nH]cnc21 (stereo not shown) [compound 14]  0.8 µg/mL
15. CCCn1c(=O)n(CCCC(C)O)c(=O)c2[nH]cnc21 (stereo not shown) [compound 24]  0.7 µg/mL
16. CC(C)Cn1c(=O)n(CCCO)c(=O)c2[nH]cnc21 [compound 11]  0.7 µg/mL
17. CCCn1c(=O)n(CCCCO)c(=O)c2[nH]c(C)nc21 [compound 20]  0.7 µg/mL
18. CCCn1c(=O)n(CC(C)O)c(=O)c2[nH]c(C)nc21 (stereo not shown) [compound 5]  0.6 µg/mL
19. CCn1c(=O)n(CCC(C)O)c(=O)c2[nH]c(C)nc21 (stereo not shown) [compound 15]  0.6 µg/mL
20. CC(C)Cn1c(=O)n(C)c(=O)c2[nH]cnc21 [IBMX, 1-méthyl-3-isobutylxanthine, reference compound]  0.5 µg/mL
21. Cc1nc2c([nH]1)c(=O)n(CCCO)c(=O)n2CC(C)C [compound 12]  0.5 µg/mL
22. CCCn1c(=O)n(CCCCO)c(=O)c2[nH]cnc21 [compound 19]  0.4 µg/mL
23. CCCCn1c(=O)n(CCCO)c(=O)c2[nH]cnc21 [compound 10]  0.4 µg/mL
24. CCCn1c(=O)n(CCCCCO)c(=O)c2[nH]cnc21 [compound 26]  0.2 µg/mL
25. CCCn1c(=O)n(CCC(C)O)c(=O)c2[nH]cnc21 (stereo not shown) [compound 16]  0.1 µg/mL
